Assay results as given in EP4692071A1, “PHOTOCHROMIC COMPOUND, NAPHTHOL DERIVATIVE, CURABLE COMPOSITION, OPTICAL ARTICLE, LENS, AND EYEGLASS” (TOKUYAMA CORPORATION, priority 2023, dated 2024).
“And” between values parts separate entries of the source, which are not always exact repeats. Equal entries are not always repeated.

Tests used:
Format in all cases: physicochemical
[1] = Residual rate (A90/A0×100) after 90 h accelerated deterioration in xenon weather meter X25, color developing durability; settings: for Residual rate (%): xenon weather meter 90 hours; for Residual rate: after 90 h accelerated deterioration
How it was run: (§1)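 Photochromic plastic lens samples were irradiated for 240 s at 23°C, and colour density was taken as the absorbance change at the absorption maximum. Fading half-life was timed from the end of irradiation until that absorbance change fell by half. Durability compared colour density before and after xenon-lamp ageing.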

[2] = 23°C color optical density (A23): absorbancy difference ε(240)-ε(0) after 240 s light irradiation at 23°C; settings: 240 s irradiation; for 23°C color optical density (-): comparative compounds
How it was run: as §1

[3] = Maximum absorption wavelength (λmax) after color development, spectrophotometer MCPD3000; settings: for Maximum absorption wavelength: after color development
How it was run: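 Read-out: absorbance at λmax, multichannel photodetector spectrophotometer. Colour density = ε(240) − ε(0), 240 s light, 23°C. τ1/2 = time for ε(240) − ε(0) to halve after light off. Residual rate compares density before and after 90 h xenon weathering.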

[4] = 23°C color fading half-life τ1/2 after 240 s light irradiation
Procedure: • [1] Maximum Absorption Wavelength (λmax): The maximum absorption wavelength after color development, measured using a spectrophotometer (instantaneous multichannel photodetector MCPD3000) manufactured by Otsuka Electronics Co., Ltd. was used as an indicator for the color tone during the color development. • [2] 23°C Color Optical Density (A23): A difference between an absorbancy measured after light irradiation at 23°C for 240 seconds {ε(240)} and an absorbancy without light irradiation ε(0) at the maximum absorption wavelength was used as an indicator for the color optical density. […] 35°C Color Optical Density (A35): A difference between an absorbancy measured after light irradiation at 35°C for 240 seconds {ε(240)} and an absorbancy without light irradiation ε(0) at the first and second absorption wavelengths was used as an indicator for the color optical density. […] 23°C color fading half-life [τ1/2 (sec.)]: A time required for the absorbancy of the sample at the maximum absorption wavelength to decrease to 1/2 of {ε(240)-ε(0)} when the light irradiation is terminated after the light irradiation at 23°C for 240 seconds, was used as an indicator for the color fading speed. The shorter this time, the higher the color fading speed. • [6] Residual rate (A90/A0×100): The obtained photochromic plastic lens was subjected to accelerated deterioration using a xenon weather meter X25 manufactured by Suga Test Instruments Co., Ltd. for 90 hours. Subsequently, the color optical density was evaluated before and after the test, then a color optical density before the test (A0) and a color optical density after the test (A90) were measured, and a ratio (A90/A0) was defined as a residual rate. The residual rate was used as an indicator for a color developing durability. The higher the residual rate, the higher the color developing durability.

[5] = High-temperature color development rate (A35/A23×100), temperature dependency; settings: for Temperature change rate (%): comparative compounds, corresponds to A35/A23×100
How it was run: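 The sample was irradiated with light for 240 seconds at 23°C and separately at 35°C. The gain in absorbance over the unirradiated state, ε(240)−ε(0), gave the color optical densities A23 and A35. A35 divided by A23, multiplied by 100, expressed how well color development holds up at the higher temperature.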

[6] = 35°C color optical density (A35): absorbancy difference ε(240)-ε(0) after 240 s light irradiation at 35°C; settings: 240 s irradiation; for 35°C color optical density (-): comparative compounds
How it was run: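 Color optical density at 35°C (A35) came from light exposure of the sample at 35°C lasting 240 seconds. At the first and second absorption wavelengths, the absorbancy before irradiation, ε(0), was subtracted from the absorbancy measured after irradiation, ε(240). This difference was taken as the measure of color optical density.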

[7] = photochromic laminate by coating method
[8] = photochromic laminate by coating method, at the maximum absorption wavelength
[9] = photochromic laminate by coating method, 40 µm photochromic layer on thiourethane lens, 0.25 mmol compound per 100 g monomers
[10] = photochromic laminate by coating method, at 522 nm absorption maximum
[11] = photochromic laminate by coating method, at 615 nm absorption maximum
[12] = photochromic laminate prepared by coating method
[13] = binder sheet (binder method), urethaneurea resin photochromic layer between polycarbonate sheets, 0.25 mmol per 100 parts by mass resin

Residual rate (%) [1, 7] [%]	A23 (-) [2, 8]	Maximum absorption wavelength (nm) [3, 9]	23°C color fading half-life [4] [min]	A35/A23 *100 (%) [5, 7] [%]	A35 (-) [6, 7]	Compound	other results
73	1.19 -	442 nm	1.5	66	0.79 -	COCCCCC1(CCCCOC)c2ccccc2-c2c1c1c(c3cc(C)c(N(C)c4ccccc4)cc23)OC(c2ccc(C)cc2)(c2ccc(OC)cc2)C=C1 (stereo not drawn) [Example 5 Formula (43)]	
			0.733	62		CCCC1(CCC)c2ccccc2-c2c1c1c(c3cc(OC)c(N(c4ccccc4)c4ccccc4)cc23)OC(c2ccc(OC)cc2)(c2ccc(N3CCOCC3)cc2)C=C1 (stereo not drawn) [Example 7 Formula (50)]	Residual rate (%) [1, 10]: 77%; Residual rate (%) [1, 11]: 76%; A23 (-) ([2]; photochromic laminate by coating method, at the maximum absorption wavelength, at 522 nm absorption maximum): 1.19 -; A23 (-) ([2]; photochromic laminate by coating method, at the maximum absorption wavelength, at 615 nm absorption maximum): 1.14 -; Maximum absorption wavelength (nm) ([3]; photochromic laminate by coating method, 40 µm photochromic layer on thiourethane lens, 0.25 mmol compound per 100 g monomers, at 522 nm absorption maximum): 522 nm; Maximum absorption wavelength (nm) ([3]; photochromic laminate by coating method, 40 µm photochromic layer on thiourethane lens, 0.25 mmol compound per 100 g monomers, at 615 nm absorption maximum): 615 nm; A35 (-) [6, 10]: 0.74 -; A35 (-) [6, 11]: 0.71 -
83			0.667	61		CCCOc1ccc(C2(c3ccc(OC)cc3)C=Cc3c4c(c5cc(N(c6ccc(C(F)(F)F)cc6)c6ccc(C(F)(F)F)cc6)c(OC)cc5c3O2)-c2ccccc2C4(CCCCOC)CCCCOC)cc1 (stereo not drawn) [Example 11 Formula (63)]	A23 (-) ([2]; photochromic laminate by coating method, at the maximum absorption wavelength, at 462 nm absorption maximum): 0.75 -; A23 (-) ([2]; photochromic laminate by coating method, at the maximum absorption wavelength, at 576 nm absorption maximum): 0.66 -; Maximum absorption wavelength (nm) ([3]; photochromic laminate by coating method, 40 µm photochromic layer on thiourethane lens, 0.25 mmol compound per 100 g monomers, at 462 nm absorption maximum): 462 nm; Maximum absorption wavelength (nm) ([3]; photochromic laminate by coating method, 40 µm photochromic layer on thiourethane lens, 0.25 mmol compound per 100 g monomers, at 576 nm absorption maximum): 576 nm; A35 (-) ([6]; photochromic laminate by coating method, at 462 nm absorption maximum): 0.46 -; A35 (-) ([6]; photochromic laminate by coating method, at 576 nm absorption maximum): 0.41 -
80	1.25 -	498 nm	1.2	67	0.84 -	CCCCN(c1ccc(F)cc1)c1cc2c3c(c4c(c2cc1OC)OC(c1ccc(OC)cc1)(c1ccc(OC)cc1)C=C4)C(CCCCOC)(CCCCOC)c1ccccc1-3 [Example 16 Formula (77)]	
78	1.25 -	493 nm	1.63	70	0.88 -	CCCC1(CCC)c2cc(C)ccc2-c2c1c1c(c3cc(OC)c(N(C)c4ccccc4)cc23)OC(c2ccc(OC)cc2)(c2ccc(OC)cc2)C=C1 [Example 18 Formula (81)]	
80	1.26 -	524 nm	1.62	69	0.87 -	CCCC1(CCC)c2ccccc2-c2c1c1c(c3cc(OC)c(N(C)c4ccccc4)cc23)OC(c2ccc(OC)cc2)(c2ccc(N(c3ccccc3)c3ccccc3)cc2)C=C1 (stereo not drawn) [Example 21 Formula (87)]	
76	1.51 -	530 nm	1.25	68	1.03 -	CCCC1(CCC)c2ccccc2-c2c1c1c(c3cc(OC)c(N(c4ccccc4)c4ccccc4)cc23)OC(c2ccc(C)cc2)(c2ccc(N(C)c3ccccc3)cc2)C=C1 (stereo not drawn) [Example 22 Formula (89)]	
75	0.98 -	501 nm	0.633	62	0.61 -	CCCCN(c1ccccc1)c1cc2c3c(c4c(c2cc1OC)OC(c1ccc(OC)cc1)(c1ccc(OCCC)cc1)C=C4)C(CC)(CC)c1cc(OC(F)(F)F)ccc1-3 (stereo not drawn) [Example 51 Formula (117)]	
78	0.82 - and 1.08 -	453 nm and 583 nm	2.92	74	0.60 - and 0.80 -	CCCCN(c1ccc(C(F)(F)F)cc1)c1cc2c3c(c4c(c2cc1OC)OC(c1ccc(C)cc1)(c1ccc(OC)cc1)C=C4)C1(CCCCCCCCCCC1)c1cc(OC)ccc1-3 (stereo not drawn) [Example 54 Formula (123)]	
			1.05			CCCOc1ccc(C2(c3ccc(OC)cc3)C=Cc3c4c(c5cc(N6CCc7ccccc76)c(C)cc5c3O2)-c2ccccc2C4(CCC)CCC)cc1 (stereo not drawn) [Formula (31A)]	Residual rate [1, 12]: 67%; Maximum absorption wavelength [3, 12]: 520 nm; A35/A23 *100 [5, 12]: 65%
			1.1			CCCCC1(CCCC)c2cc(C(F)(F)F)ccc2-c2c1c1c(c3cc(C)c(N4CCc5ccccc54)cc23)OC(c2ccc(OC)cc2)(c2ccc(OC)c(C)c2)C=C1 (stereo not drawn) [Formula (64A)]	Residual rate [1, 12]: 64%; Maximum absorption wavelength [3, 12]: 523 nm; A35/A23 *100 [5, 12]: 65%
			0.933			CCCc1ccc(C2(c3ccc(OC)cc3)C=Cc3c4c(c5cc(N6CCc7ccccc76)c(OC)cc5c3O2)-c2ccc(-c3ccc(C(F)(F)F)cc3)cc2C4(CCOC)CCOC)cc1 (stereo not drawn) [Formula (85A)]	Residual rate [1, 12]: 65%; Maximum absorption wavelength [3, 12]: 530 nm; A35/A23 *100 [5, 12]: 69%

Compound	Residual rate (%) [1, 7] [%]	A23 (-) [2, 8]	Maximum absorption wavelength (nm) [3, 9]	23°C color fading half-life [4] [min]	A35/A23 *100 (%) [5, 7] [%]	A35 (-) [6, 7]	other results
COc1ccc(C2(c3ccc(OC)cc3)C=Cc3c4c(c5cc(N6CCCCC6)c(OC)cc5c3O2)-c2ccccc2C4(C)C)cc1 [Formula (E), reference compound]	51		481 nm				Residual rate ([1]; binder sheet (binder method)): 68%; Residual rate (%) ([1]; binder sheet (binder method)): 68%; Residual rate [1, 12]: 51%; A23 (-) ([2]; binder sheet (binder method)): 1.85 -; 23°C color optical density (-) [2, 7]: 1.81 -; Maximum absorption wavelength (nm) [3, 13]: 481 nm; Maximum absorption wavelength ([3]; binder sheet (binder method)): 481 nm; Maximum absorption wavelength [3, 12]: 481 nm; A35/A23 *100 ([5]; binder sheet (binder method)): 70%; A35/A23 *100 (%) ([5]; binder sheet (binder method)): 70%; Temperature change rate (%) [5, 7]: 71%; A35/A23 *100 [5, 12]: 71%; A35 (-) ([6]; binder sheet (binder method)): 1.30 -; 35°C color optical density (-) [6, 7]: 1.28 -
COc1ccc(C2(c3ccc(OC)cc3)C=Cc3c4c(c5cc(N6CCc7ccccc7C6)c(OC)cc5c3O2)-c2ccccc2C4(C)C)cc1 [Formula (F), reference compound]	50		481 nm				Residual rate (%) ([1]; binder sheet (binder method)): 64%; A23 (-) ([2]; binder sheet (binder method)): 1.85 -; 23°C color optical density (-) [2, 7]: 1.81 -; Maximum absorption wavelength (nm) [3, 13]: 481 nm; A35/A23 *100 (%) ([5]; binder sheet (binder method)): 70%; Temperature change rate (%) [5, 7]: 71%; A35 (-) ([6]; binder sheet (binder method)): 1.30 -; 35°C color optical density (-) [6, 7]: 1.28 -
